# Legend:
# [1] = test system: MDA-MB436 breast carcinoma cell line; test: MDA-MB436 HuNOG-EXL mice treated with niraparib and BLZ945: tumor volume; format: in vivo; details: 200 mg/kg BLZ945 5 day on and 2 day off plus 80 mg/kg niraparib tosylate once daily, oral; FIG. 6A, 6B (day 26)
# Method: This example describes the effects of treatment with an agent that inhibits PARP together with an agent that regulates activity in the tumor microenvironment in a mouse model of breast cancer. HuNOG-EXL mice inoculated with MDA-MB436 breast carcinoma cell line were orally administered: i) 80 mg/kg of niraparib tosylate once daily; ii) 200 mg/kg BLZ945 (an anti-CSF-1R that binds to CSF1R and inhibits CSF1R-mediated signal transduction pathways in tumor associated macrophages) on a 5 day on and 2 day off schedule; or iii) 80 mg/kg of niraparib tosylate and 200 mg/kg BLZ945 with the same dosing schedule as the single agent groups. Control mice were administered an isotype control antibody twice weekly via intraperitoneal injection.
# Tumor volumes were recorded twice in a week with a gap of 2-3 days in between two measurements until tumor volume reached 600-1000 mm^3 in the control mice.
# [2] = crystalline solid; cited from earlier work
# [3] = test system: primary Murine skin cancer model mSK6005; details: 50 mg/kg orally once daily for 21 days, compared to vehicle treated mice
# Method: This example describes the effects of treatment with an agent that inhibits PARP signaling on tumor microenvironment in a mouse model of colorectal cancer. 50 mg/kg of niraparib or vehicle (0.5% methylcellulose) was orally administered once daily for 21 days to C57BL/6 mice inoculated with primary Murine skin cancer model mSK6005 fragment developed from Apc^Min/J heterozygous background. Formalin-fixed, paraffin-embedded (FFPE) blocks were prepared from tumor samples collected from the mice. Immunohistochemistry (IHC) staining was performed on FFPE samples to assess expression of various markers for immune response in the tumor samples. Five fields in each staining, without necrosis, were randomly selected and imaged at 20× magnification.
# All the images were analyzed with Image J software. For CD4, CD8, and FoxP3 IHC, positive cells were counted and the average of 5 fields positive cell numbers was taken as the score value of each case. For Iba1 IHC, the percentage of Iba1 positive expression area or mean gray was measured and taken as the score value of each case. The percentages of tumor cells at different intensity levels were evaluated according to the calculation below. Total Score=(% at 0)×0+(% at 1)×1+(% at 2)×2+(% at 3)×3
# MDA-MB-436 = test system: MDA-MB-436
# From the text: FIG. 5A depicts percentage of Ki67-positive CD4 and CD8 positive cells among total CD3 population in control or niraparib treated mice as assessed by flow cytometry.
# FIG. 5B depicts tumor volume in MDA-MB-436 huNOG-EXL mice treated with niraparib or control.
# CTLA-4 = target: T1, CTLA-4 (Homo sapiens, UniProt P16410); details: biopsy samples taken after tremelimumab treatment; cited from earlier work
# T1 construct: host or cells: metastatic melanoma patients (endogenous CTLA-4)
# T1 sequence (P16410 36-223): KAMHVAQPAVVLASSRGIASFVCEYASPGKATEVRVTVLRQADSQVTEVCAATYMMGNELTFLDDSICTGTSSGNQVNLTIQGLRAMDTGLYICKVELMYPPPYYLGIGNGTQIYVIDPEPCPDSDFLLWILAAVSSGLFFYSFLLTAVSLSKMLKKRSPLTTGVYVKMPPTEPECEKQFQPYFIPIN
molecule,measurement,setting,value
CNC(=O)c1cc(Oc2ccc3nc(N[C@@H]4CCCC[C@H]4O)sc3c2)ccn1 [BLZ945],anti-tumor activity of the combination (tumor volume),[1],enhances anti-tumor activity of niraparib
"Cc1ccc(S(=O)(=O)O)cc1.NC(=O)c1cccc2cn(-c3ccc([C@@H]4CCCNC4)cc3)nc12.O [Niraparib tosylate monohydrate, (3 S)-3-[4-{7-(aminocarbonyl)-2H-indazol-2-yl}phenyl]piperidine tosylate monohydrate]",hygroscopicity of drug substance,[2],non-hygroscopic
"NC(=O)c1cccc2cn(-c3ccc([C@@H]4CCCNC4)cc3)nc12 [niraparib, (3S)-3-[4-{7-(aminocarbonyl)-2H-indazol-2-yl}phenyl]piperidine]",expression of CD4 in tumor samples (IHC),[3],Increased expression
same,expression of CD8 in tumor samples (IHC),[3],Increased expression
same,expression of FoxP3 in tumor samples (IHC),[3],Increased expression
same,expression of Iba1 in tumor samples (IHC),[3],Increased expression
same,tumor growth,MDA-MB-436; 35 mg/kg QD×5/week (FIG. 5B),reduction of tumor growth
same,percentage of CD8+ cells,"MDA-MB-436; 35 mg/kg QD×5/week, flow cytometry (FIG. 5A)",increased percentage of CD8+ cells
tremelimumab: anti-CTLA-4 antibody,intratumoral infiltration by CD8+ cells,CTLA-4,highly significant increase

# — patent publication US11622961B2, “Combination therapies for treating cancer” (TESARO, INC., priority 2017, dated 2023)
